Data as given in patent US10905704B2, “Agents and methods using thereof for the prevention and treatment of stem cell muscle disorders” (ECOLE POLYTECHNIQUE FEDERALE DE LAUSANNE (EPFL), priority 2015, dated 2021).

Columns and labels:
[1] = test system: tibialis anterior (TA) muscle; experiment: Cardiotoxin-induced muscle damage, regeneration of TA muscle; assay type: in vivo, C57BL/6J mice; conditions: for PAX7-positive MuSCs after CTX-induced damage: 7 days after CTX
Procedure: (§1) Cardiotoxin-induced muscle damage. Animals were anesthetized using Isoflurane in oxygen from a precision vaporizer. 50 μl of 20 μM Naje mossambica mossambica cardiotoxin (Sigma) was injected intramuscularly cross the skin and directly into the tibialis anterior (TA) muscle. Mice were sacrificed at 7 and 14 days after injury. TA muscles were immediately embedded in Thermo Scientific™ Shandon™ Cryomatrix™ and frozen in isopentane, cooled in liquid nitrogen, for 2 mins before being transferred to dry ice and stored at −80° C.
(§2) Histology. TA muscles were harvested from anaesthetized mice and immediately frozen in Tissue-TEK® OCT compound (PST). 8-μm cryosections were collected and fixed with 4% paraformaldehyde, which are either stained with haematoxylin/eosin (HE) or antibodies. For immunostainings, heat activated antigen retrieval was performed in pH 6.0 citrate buffer for 10 min at 65° C. After washing with PBS-0.1% tween 20 (PBST), the sections were blocked with 10% affinipure Fab goat anti mouse IgG (Jackson Immunoresearch) in PBST for 60 min and PBST containing 2% BSA and 5% goat serum for 30 min at room temperature. Primary antibodies were then applied over night at 4° C. The following antibodies were used: anti-eMHC (Developmental Studies Hybridoma Bank, DSHB, University of Iowa), anti-Pax7 (DSHB, University of Iowa), anti-Laminin (Sigma). Subsequently, the slides were washed in PBST and incubated with appropriate secondary antibodies and labeling dyes. For immunofluorescence, secondary antibodies were coupled to Alexa-488 or Alexa-568 fluorochromes (Life technology), and nuclei were stained with DAPI (Invitrogen). After washing in PBST, tissue sections were mounted with Dako mounting medium (Dako).

MuSCs [2] = experiment: Senescence and apoptosis marker staining of MuSCs from NR-treated mice (γH2AX, β-galactosidase, cleaved CASP3); assay type: cell-based, C57BL/6J mice
Procedure: Histology. TA muscles were harvested and the immunestaining was performed as described in Example 2. The following antibodies were used: anti-γH2AX […] (Millipore), anti-activated-caspase3 (Cell signaling). Secondary antibodies were coupled to Alexa-488 or Alexa-568 fluorochromes (Life technology), and nuclei were stained with DAPI (Invitrogen). β-galactosidase assay. MuSCs were sorted directly and cultured primary MuSCs were grown on 8 chamber slides (Thermo Scientific). Senescence-associated β-galactosidase activity was detected using the senescence β-galactosidase staining kit (Cell signaling), according to manufacturer's instructions. Cell culture and treatments. FACS sorted MuSCs were grown on a 10% Matrigel (Corning)-coated dish and flasks with Fams F-10 media (Gibco), supplemented with 20% fetal bovine serum (FBS, Gibco), 2.5 ng/ml basic fibroblast growth factor (bFGF, Sigma) and penicillin/streptomycin (1×, Gibco). Dishes were coated with 10% growth factor-free Matrigel solution on ice for 7 min then transferred to a 37° C. cell culture incubator overnight before use. Cells were grown for three generations in vitro before experiments with cells plated and passaged at 10^3 cells/ml and 50% confluencies, respectively. C2C12 mouse myoblasts were grown in DMEM (4.5 g/1 glucose, Gibco) supplemented with 10% FBS and penicillin/streptomycin (1×, Gibco).

MuSCs [3] = experiment: MuSC autofluorescence (405/450) as measure of relative NAD(P)H, cellular redox ratio; assay type: cell-based; conditions: MuSCs isolated from NR-treated Mdx mice, FIG. 6G-I
Procedure: Determining cellular redox ratio. NAD+ and NADH quantification and ratio were measured using a kit from Biovision (Milpitas, Calif.), following providers' instructions. With continuous muscle regeneration, MuSCs in Mdx mice are abnormally active at a young age, leading to MuSC depletion and dysfunction later in life. […] Thus the self-renewal capacity of Mdx mouse MuSCs was tested. The cellular redox ratio decreases as MuSCs differentiate (Fulco et al., 2003, Molecular Cell, 12: 51), which can be detected by the increase in 405/450 autofluorescence (Quinn et al., 2013, Scientific Reports, 3: 3432). […] We then performed β-galactosidase staining on primary MuSCs isolated from Mdx mice, with or without NR treatment, and cultured these cells with NR or vehicle in vitro. […] The prevention of MuSCs senescence in NR-treated Mdx mice was confirmed by the attenuation of γH2AX and cleaved caspase-3 immunostaining (FIG. 6K). To evaluate MuSC function, CTX-induced muscle regeneration was examined in NR-treated mice.

muscle = experiment: Cardiotoxin-induced muscle damage in NR-treated Mdx mice; assay type: in vivo
Procedure: as §1
as §2, with “Subsequently, the slides were washed in PBST and incubated with appropriate secondary antibodies and labeling dyes. For immunofluorescence, secondary antibodies were coupled to Alexa-488 or Alexa-568 fluorochromes (Life technology), and nuclei were stained with DAPI (Invitrogen). After washing in PBST, tissue sections were mounted with Dako mounting medium (Dako).” left out

C2C12 myoblasts = experiment: Western blot of UPRmt markers, prohibitins and cell cycle proteins in NR-treated C2C12 myoblasts; assay type: cell-based, mouse
Procedure: Western blotting performed as described in Example 3. The following primary antibodies were used: anti-HSP60 (Enzo Life Science); anti-β-actin (Sigma); anti-PHB (Biolegend); anti-PHB2 (Santa Cruz); anti-CKD4 (Novus biologicals); anti-CCND1 (Santa Cruz); anti-CCND3 (Santa Cruz); anti-HSP90 (BD Biosciences); HSP70 (Abcam); and anti-CLPP (Sigma). Cell culture and treatments were prepared according to description of Example 3. C2C12 mouse myoblasts were grown in DMEM (4.5 g/1 glucose, Gibco) supplemented with 10% FBS and penicillin/streptomycin (1×, Gibco). Cell transformation with Phb (Santa Cruz) and Phb2 shRNA (Santa Cruz) were performed using jetPEI DNA transfection kit (Polyplus), according to manufacturer's instructions. Cells were treated with 1 mM NR or PBS for 6 hours before cell harvesting or fixation. Respirometry on C2C12 myoblasts. Basal and uncoupled oxygen consumption rates (OCRs) and the extracellular acidification rate (ECAR) was measured using the Seahorse extracellular flux bioanalyzer (XF96, Seahorse Bioscience Inc.). To uncouple mitochondria, 5 uM of FCCP was injected after a basal respiration measurement. All measurements were performed in triplicates and results were normalized to total protein amount (C2C12 cells), assessed using a Bradford kit (Bio-Rad).

[4] = MuSCs from NR-treated mice cultured ex vivo for three generations

NC(=O)c1ccc[n+]([C@@H]2O[C@H](CO)[C@@H](O)[C@H]2O)c1 [NR, nicotinamide riboside]
muscle regeneration after CTX-induced muscle damage (H/E) ([1]; aged mice, 7 and 14 days of regeneration, FIG. 3H): accelerated muscle regeneration
PAX7-positive MuSCs after CTX-induced damage ([1]; aged mice, FIG. 3I-J): increases in PAX7-positive MuSCs
embryonic myosin heavy chain (eMyHC) staining, newly regenerated fibers ([1]; aged mice, 7 days after CTX-induced damage, FIG. 3L): improvements in embryonic myosin heavy chain staining
MYOD1-positive PAX7 immunostained cells (stemness) ([1]; aged mice, 7 days after muscle damage, FIG. 3K): reduction in MYOD1-positive PAX7 immunostained cells
muscle regeneration after CTX-induced muscle damage ([1]; young mice): accelerated muscle regeneration
PAX7-positive MuSCs after CTX-induced damage ([1]; young mice): trend to increase
cleaved caspase-3 (CASP3) immunostaining (MuSCs [2]; [4]): reductions
γH2AX positive nuclei (MuSCs [2]; [4]): reductions
γH2AX positive nuclei (MuSCs [2]; freshly isolated MuSCs from aged mice, NR diet, FIG. 4A,B): staining was reduced
β-galactosidase staining (senescence) (MuSCs [2]; freshly sorted MuSCs from aged mice, NR diet): reduction of the nuclear damage response was confirmed
405/450 autofluorescence of MuSCs (MuSCs [3]): significant reduction in autofluorescence
regenerated muscle fibers (eMyHC) (muscle; 7 days after CTX, FIG. 6F): increase in regenerated muscle fibers
CTX-induced muscle regeneration (H/E) (muscle; 7 days of recovery, FIG. 6L): muscle regeneration was improved
dependence of NR effects on cell senescence on prohibitins (C2C12 myoblasts; C2C12, Phb1 and Phb2 shRNA knockdown with 6-hour NR treatment, overexpression, FIG. 5C,D): PHB-dependent
Phb1 and Phb2 expression (C2C12 myoblasts; C2C12 myoblasts, NR treatment, FIG. 5A): induced Phb1 and Phb2 expression
UPRmt markers (HSP60, CLPP) (C2C12 myoblasts; NR-treated C2C12 mouse myoblasts, FIG. 5A): similarly induced
